# Source: PubChem BioAssay AID2060487 (Molecular Pharmacology Branch, DTP, NCI, 2025)
# Test system: 997537-175-T-J1-PDC complex spheroid viability
# Assay: Anticancer human tumor 997537-175-T-J1-PDC patient-derived colon adenocarcinoma cell line growth inhibition [GQUAD]
# Settings: for IC50: curve of first compound; for viability, T/C: stronger effect = lower value
# How it was run: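 Multi-cell-type spheroids of tumor cells with HUVEC and mesenchymal stem cells, treated with drug combinations. Concentrations descend in half-log steps from near clinical Cmax, or from 10 microM where Cmax is unknown; viability read-out.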
# [1] = second compound 0.0316 µM, first compound 0.0316 µM
# [2] = second compound 0.0316 µM, first compound 0.1 µM
# [3] = second compound 0.0316 µM, first compound 0.316 µM
# [4] = second compound 0.0316 µM, first compound 1 µM
# [5] = second compound 0.0316 µM, first compound 3.16 µM
# [6] = second compound 0.0316 µM, first compound 10 µM
# [7] = second compound 0.1 µM, first compound 0.0316 µM
# [8] = second compound 0.1 µM, first compound 0.1 µM
# [9] = second compound 0.1 µM, first compound 0.316 µM
# [10] = second compound 0.1 µM, first compound 1 µM
# [11] = second compound 0.1 µM, first compound 3.16 µM
# [12] = second compound 0.1 µM, first compound 10 µM
# [13] = second compound 0.316 µM, first compound 0.0316 µM
# [14] = second compound 0.316 µM, first compound 0.1 µM
# [15] = second compound 0.316 µM, first compound 0.316 µM
# [16] = second compound 0.316 µM, first compound 1 µM
# [17] = second compound 0.316 µM, first compound 3.16 µM
# [18] = second compound 0.316 µM, first compound 10 µM
# [19] = second compound 1 µM, first compound 0.0316 µM
# [20] = second compound 1 µM, first compound 0.1 µM
# [21] = second compound 1 µM, first compound 0.316 µM
# [22] = second compound 1 µM, first compound 1 µM
# [23] = second compound 1 µM, first compound 3.16 µM
# [24] = second compound 1 µM, first compound 10 µM
# [25] = second compound 3.16 µM, first compound 0.0316 µM
# [26] = second compound 3.16 µM, first compound 0.1 µM
# [27] = second compound 3.16 µM, first compound 0.316 µM
# [28] = second compound 3.16 µM, first compound 1 µM
# [29] = second compound 3.16 µM, first compound 3.16 µM
# [30] = second compound 3.16 µM, first compound 10 µM
# [31] = second compound 10 µM, first compound 0.0316 µM
# [32] = second compound 10 µM, first compound 0.1 µM
# [33] = second compound 10 µM, first compound 0.316 µM
# [34] = second compound 10 µM, first compound 1 µM
# [35] = second compound 10 µM, first compound 3.16 µM
# [36] = second compound 10 µM, first compound 10 µM
# 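Also: spheroids exposed to the agents for 7 days.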
# 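For viability, T/C in this document: 100% = DMSO vehicle control viability.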
smiles,measurement,setting,value
COc1ncnc(C2CC2)c1-c1ncc2cnn(Cc3ccc(-c4nc(C(F)(F)F)cn4C(C)C)cc3)c2n1 + Cc1[nH]c2ccc(F)cc2c1-c1nc2c3cccnc3c3ncccc3c2[nH]1,IC50,second compound 0.0316 µM,9.19 µM
same,IC50,second compound 0.1 µM,> 10 µM
same,IC50,second compound 0.316 µM,> 10 µM
same,IC50,second compound 1 µM,9.26 µM
same,IC50,second compound 3.16 µM,8.15 µM
same,IC50,second compound 10 µM,> 10 µM
same,"viability, T/C",[1],100%
same,"viability, T/C",[2],98.9%
same,"viability, T/C",[3],103%
same,"viability, T/C",[4],93.1%
same,"viability, T/C",[5],98.8%
same,"viability, T/C",[6],46.2%
same,"viability, T/C",[7],100%
same,"viability, T/C",[8],107%
same,"viability, T/C",[9],102%
same,"viability, T/C",[10],96.3%
same,"viability, T/C",[11],87.9%
same,"viability, T/C",[12],70.5%
same,"viability, T/C",[13],104%
same,"viability, T/C",[14],101%
same,"viability, T/C",[15],100%
same,"viability, T/C",[16],96.7%
same,"viability, T/C",[17],91.8%
same,"viability, T/C",[18],50.9%
same,"viability, T/C",[19],91.7%
same,"viability, T/C",[20],103%
same,"viability, T/C",[21],101%
same,"viability, T/C",[22],93%
same,"viability, T/C",[23],92.8%
same,"viability, T/C",[24],46.8%
same,"viability, T/C",[25],83.1%
same,"viability, T/C",[26],86.5%
same,"viability, T/C",[27],87.2%
same,"viability, T/C",[28],84.2%
same,"viability, T/C",[29],76.7%
same,"viability, T/C",[30],44.2%
same,"viability, T/C",[31],85.3%
same,"viability, T/C",[32],87.8%
same,"viability, T/C",[33],89.1%
same,"viability, T/C",[34],89.5%
same,"viability, T/C",[35],72.9%
same,"viability, T/C",[36],59.6%
O=C(c1cc(Cc2n[nH]c(=O)c3ccccc23)ccc1F)N1CCN(C(=O)C2CC2)CC1 + Cc1[nH]c2ccc(F)cc2c1-c1nc2c3cccnc3c3ncccc3c2[nH]1,IC50,second compound 0.0316 µM,> 10 µM
same,IC50,second compound 0.1 µM,> 10 µM
same,IC50,second compound 0.316 µM,> 10 µM
same,IC50,second compound 1 µM,> 10 µM
same,IC50,second compound 3.16 µM,> 10 µM
same,IC50,second compound 10 µM,> 10 µM
same,"viability, T/C",[1],99.8%
same,"viability, T/C",[2],96.1%
same,"viability, T/C",[3],93.2%
same,"viability, T/C",[4],81.6%
same,"viability, T/C",[5],79%
same,"viability, T/C",[6],102%
same,"viability, T/C",[7],91.8%
same,"viability, T/C",[8],95.7%
same,"viability, T/C",[9],77.1%
same,"viability, T/C",[10],67.8%
same,"viability, T/C",[11],89.5%
same,"viability, T/C",[12],94.1%
same,"viability, T/C",[13],76.1%
same,"viability, T/C",[14],103%
same,"viability, T/C",[15],90%
same,"viability, T/C",[16],88.5%
same,"viability, T/C",[17],98.4%
same,"viability, T/C",[18],94.6%
same,"viability, T/C",[19],76.9%
same,"viability, T/C",[20],96.7%
same,"viability, T/C",[21],73.6%
same,"viability, T/C",[22],101%
same,"viability, T/C",[23],106%
same,"viability, T/C",[24],109%
same,"viability, T/C",[25],90.7%
same,"viability, T/C",[26],89.9%
same,"viability, T/C",[27],100%
same,"viability, T/C",[28],81.4%
same,"viability, T/C",[29],94.4%
same,"viability, T/C",[30],94.4%
same,"viability, T/C",[31],71.9%
same,"viability, T/C",[32],84.1%
same,"viability, T/C",[33],96.7%
same,"viability, T/C",[34],60.5%
same,"viability, T/C",[35],79.8%
same,"viability, T/C",[36],83.6%
O=C(NO)c1cnc(N2CCN(S(=O)(=O)c3ccc4ccccc4c3)CC2)nc1 + Cc1[nH]c2ccc(F)cc2c1-c1nc2c3cccnc3c3ncccc3c2[nH]1,IC50,second compound 0.0316 µM,0.0892 µM
same,IC50,second compound 0.1 µM,0.134 µM
same,IC50,second compound 0.316 µM,0.0915 µM
same,IC50,second compound 1 µM,0.0878 µM
same,IC50,second compound 3.16 µM,0.043 µM
same,IC50,second compound 10 µM,< 0.0316 µM
same,"viability, T/C",[1],93.7%
same,"viability, T/C",[2],45.1%
same,"viability, T/C",[3],19.4%
same,"viability, T/C",[4],35.4%
same,"viability, T/C",[5],39.2%
same,"viability, T/C",[6],21.7%
same,"viability, T/C",[7],73.6%
same,"viability, T/C",[8],56.2%
same,"viability, T/C",[9],31.2%
same,"viability, T/C",[10],32.7%
same,"viability, T/C",[11],20.9%
same,"viability, T/C",[12],42.4%
same,"viability, T/C",[13],78.8%
same,"viability, T/C",[14],43.4%
same,"viability, T/C",[15],52.3%
same,"viability, T/C",[16],31.8%
same,"viability, T/C",[17],42.2%
same,"viability, T/C",[18],34.8%
same,"viability, T/C",[19],74.4%
same,"viability, T/C",[20],44.5%
same,"viability, T/C",[21],37.6%
same,"viability, T/C",[22],29.4%
same,"viability, T/C",[23],23.6%
same,"viability, T/C",[24],26.2%
same,"viability, T/C",[25],55.9%
same,"viability, T/C",[26],33.5%
same,"viability, T/C",[27],30.5%
same,"viability, T/C",[28],24.8%
same,"viability, T/C",[29],25.6%
same,"viability, T/C",[30],19.4%
same,"viability, T/C",[31],45.1%
same,"viability, T/C",[32],16.1%
same,"viability, T/C",[33],10.4%
same,"viability, T/C",[34],19.8%
same,"viability, T/C",[35],16.6%
same,"viability, T/C",[36],18%
